The source of these data is US10561661B2, “Purine derivative compounds for medical use” (MANROS THERAPEUTICS, priority 2014, dated 2020).

Entries after “also recorded” stand apart in the source; their conditions may differ.

The subject of one data set is Pseudomonas aeruginosa. As to the kind of experiment: Growth of P. aeruginosa culture (optical density). Format: cell-based. Conditions: 37° C. The protocol:
FIG. 3. Absence of growth inhibition of P. aeruginosa culture by M3 metabolite and derivatives. 1/100 dilution of an overnight culture of P. aeruginosa was introduced in fresh culture medium and cultures were incubated at 37° C. with 20 μM of M3 metabolite or derivatives or 1 μM bafilomycin (negative control). Optical density (600 nm) was measured 2 h and 3.5 h after starting the cultivation, and every 30 min for 2.5 h.
Pseudomonas aeruginosa DsRed from single colony was grown in gentamicin containing TSB overnight at 37° C. with agitation at 300 RPM. Next day it was started the new culture at 1/100 dilution and certain compound of blocker were added to the tubes. We measured optical density (660 nm) of bacterial culture at every 30 minutes.

Another data set addresses CLK3 (Homo sapiens, UniProt P49761). Nature of the data set: IC50 towards inhibition of various kinases: CLK3. Format: biochemical.
In the next data set the test system is CDK1/cyclin B. Nature of the data set: IC50 towards inhibition of various kinases: CDK1/cyclin B. Format: biochemical.
A further data set concerns the target DYRK3 (Homo sapiens, UniProt O43781). As to the kind of experiment: IC50 towards inhibition of various kinases: DYRK3. It is filed as biochemical.
Another data set deals with PfGSK-3 (Plasmodium falciparum, UniProt O77344). As to the kind of experiment: biochemical. Conditions: read-out: IC50 value towards inhibition of PfGSK-3.
Sequence of PfGSK-3 (O77344 1-440): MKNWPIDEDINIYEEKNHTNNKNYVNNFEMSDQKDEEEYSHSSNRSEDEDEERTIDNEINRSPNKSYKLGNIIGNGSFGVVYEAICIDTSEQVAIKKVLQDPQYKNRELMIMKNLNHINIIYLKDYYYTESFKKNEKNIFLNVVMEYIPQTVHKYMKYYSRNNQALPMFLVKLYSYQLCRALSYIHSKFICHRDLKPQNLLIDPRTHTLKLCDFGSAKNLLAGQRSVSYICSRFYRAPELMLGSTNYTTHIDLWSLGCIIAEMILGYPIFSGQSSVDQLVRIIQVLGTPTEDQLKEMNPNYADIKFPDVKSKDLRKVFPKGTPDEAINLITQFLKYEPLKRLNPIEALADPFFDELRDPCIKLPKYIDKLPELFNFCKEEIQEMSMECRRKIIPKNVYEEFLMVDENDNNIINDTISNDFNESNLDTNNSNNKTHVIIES
Another data set has as its target DYRK2 (Homo sapiens, UniProt Q92630). Nature of the data set: IC50 towards inhibition of various kinases: DYRK2. It is filed as biochemical.
The next data set concerns GSK-3α/β. As to the kind of experiment: IC50 towards inhibition of various kinases: GSK-3α/β. Format: biochemical.
For data set [1], the system named is human alveolar macrophages. As to the kind of experiment: Phagosomal acidification, pHrodo Red BioParticles, plate reader. It is filed as cell-based. Conditions: 10 μM, read over 3 h. The protocol: (1C) Comparative effect of various compounds on phagosomal pH in human alveolar macrophages. Data summary from 3-10 patients for each compound tested at 10 μM. Data was obtained in triplicate for each patient and averaged for all patients with error bars indicating the SEM. Data were normalized to fluorescence changes observed in untreated control cells for each patient before averaging.
Broncho-alveolar lavage from humans was performed on consenting adults following a protocol approved by The University of Chicago Institutional Review Board. The patients included men and women, smokers and non-smokers, undergoing bronchoscopy for cancer biopsies prior to clinical treatment. […]
In brief, broncho-alveolar lavage fluid was strained through a 70 μm sterile cell strainer into a 50 ml conical tube centrifuge tube with a maximum broncho-alveolar lavage volume of 40 ml and a minimum volume of 10 ml followed by centrifugation at 1000×g for 5 min at 4° C. […] Cells were counted on Countess® (Invitrogen) with a distribution cut-off of 20-60 μm and cell viability determined by trypan blue exclusion. […]
After 24 h incubation cells were exposed to pHrodo Red BioParticles® (Life Technologies). Acidification was measured on 96-well plate format with 560 and 580 nm excitation and emission wavelengths at 37° C. in a Synergy MX, BioTek® plate reader. […]

Data set [2] deals with ΔF508 CFTR alveolar macrophages. Nature of the data set: Intracellular Pseudomonas aeruginosa growth (bacterial killing) in ΔF508 CFTR alveolar macrophages, live cell microscopy. It is filed as cell-based, mouse. Conditions: ΔF508 CFTR expressing alveolar macrophages, 20 μM, 6 h observation. On the procedure:
(§1) FIG. 2. Inhibition of Pseudomonas aeruginosa growth in cftr^−/− and ΔF508 alveolar macrophages by M3 metabolite and derivatives. A comparison of intracellular bacterial growth in single murine alveolar macrophages was carried out using live cell microscopy. Cells were fed DS-Red expressing P. aeruginosa for 30 min (MOI<10). Cells were exposed to M3 metabolite for 20 min prior to exposure to bacteria. Adherent and non-ingested bacteria were then removed by washing and incubation with antibiotics and live alveolar macrophages were observed microscopically for approximately 6 hours.
(§2) The data are presented as means of fluorescence intensities±SEM. Control conditions summarized data obtained from: WT—2 mice, 38 cells; ΔF508—6 mice, 120 cells; cftr^−/− 4 mice, 87 cells. […] In the presence of M3 metabolite we analysed data from: ΔF508—3 mice, 57 cells; cftr^−/−1 mouse, 67 cells. […]

The target of another data set is CLK1 (Homo sapiens, UniProt P49759). Nature of the data set: IC50 towards inhibition of various kinases: CLK1. It is filed as biochemical.
Sequence of CLK1 (P49759 whole entry): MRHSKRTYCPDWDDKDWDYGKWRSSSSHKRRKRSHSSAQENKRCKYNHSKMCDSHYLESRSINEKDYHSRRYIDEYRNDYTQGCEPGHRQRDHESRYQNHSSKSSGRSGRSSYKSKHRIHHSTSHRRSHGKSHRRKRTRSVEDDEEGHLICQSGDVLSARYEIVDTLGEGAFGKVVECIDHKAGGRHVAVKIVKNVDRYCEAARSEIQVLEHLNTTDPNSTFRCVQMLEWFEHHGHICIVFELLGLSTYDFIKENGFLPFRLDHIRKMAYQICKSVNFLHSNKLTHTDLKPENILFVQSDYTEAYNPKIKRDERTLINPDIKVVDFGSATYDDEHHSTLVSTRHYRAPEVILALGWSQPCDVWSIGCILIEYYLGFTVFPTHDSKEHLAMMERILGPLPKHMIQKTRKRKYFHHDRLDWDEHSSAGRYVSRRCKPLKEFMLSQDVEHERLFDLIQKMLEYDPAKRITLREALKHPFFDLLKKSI
The subject of a further data set is CK1δ/ε. Nature of the data set: IC50 towards inhibition of various kinases: CK1δ/ε. It is filed as biochemical.
For data set [3], the system named is cftr−/− alveolar macrophages. Nature of the data set: Intracellular Pseudomonas aeruginosa growth (bacterial killing) in cftr−/− alveolar macrophages, live cell microscopy. Format: cell-based, mouse. Conditions: 20 μM, 6 h observation. On the procedure: as §1, §2
For a further data set, the target named is CLK2 (Homo sapiens, UniProt P49760). Nature of the data set: IC50 towards inhibition of various kinases: CLK2. Format: biochemical.
Sequence of CLK2 (P49760 whole entry, species assumed): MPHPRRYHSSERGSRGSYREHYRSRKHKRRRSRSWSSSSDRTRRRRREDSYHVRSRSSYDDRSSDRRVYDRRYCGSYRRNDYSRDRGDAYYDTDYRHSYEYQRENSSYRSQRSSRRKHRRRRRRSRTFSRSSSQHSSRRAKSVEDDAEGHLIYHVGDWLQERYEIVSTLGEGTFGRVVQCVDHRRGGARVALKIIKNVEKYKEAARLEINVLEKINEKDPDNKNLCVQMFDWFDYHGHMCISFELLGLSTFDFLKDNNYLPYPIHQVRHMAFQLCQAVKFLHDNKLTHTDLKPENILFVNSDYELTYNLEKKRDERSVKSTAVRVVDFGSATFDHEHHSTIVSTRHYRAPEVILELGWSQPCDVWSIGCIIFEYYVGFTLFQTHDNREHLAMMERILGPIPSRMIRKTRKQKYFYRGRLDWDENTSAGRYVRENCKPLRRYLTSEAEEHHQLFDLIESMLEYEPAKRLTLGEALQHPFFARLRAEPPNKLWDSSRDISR
For the next data set, the target named is DYRK1A (Homo sapiens, UniProt Q13627). Nature of the data set: IC50 towards inhibition of various kinases: DYRK1A. It is filed as biochemical.
Another data set deals with CDK9/cyclin T (Homo sapiens, UniProt P50750). As to the kind of experiment: IC50 towards inhibition of various kinases: CDK9/cyclin T. Format: biochemical.
The target of another data set is kinase. Conditions: cited from earlier work.
For the next data set, the target named is CLK4 (Homo sapiens, UniProt Q9HAZ1). Nature of the data set: IC50 towards inhibition of various kinases: CLK4. Format: biochemical.
Sequence of CLK4 (Q9HAZ1 whole entry, species assumed): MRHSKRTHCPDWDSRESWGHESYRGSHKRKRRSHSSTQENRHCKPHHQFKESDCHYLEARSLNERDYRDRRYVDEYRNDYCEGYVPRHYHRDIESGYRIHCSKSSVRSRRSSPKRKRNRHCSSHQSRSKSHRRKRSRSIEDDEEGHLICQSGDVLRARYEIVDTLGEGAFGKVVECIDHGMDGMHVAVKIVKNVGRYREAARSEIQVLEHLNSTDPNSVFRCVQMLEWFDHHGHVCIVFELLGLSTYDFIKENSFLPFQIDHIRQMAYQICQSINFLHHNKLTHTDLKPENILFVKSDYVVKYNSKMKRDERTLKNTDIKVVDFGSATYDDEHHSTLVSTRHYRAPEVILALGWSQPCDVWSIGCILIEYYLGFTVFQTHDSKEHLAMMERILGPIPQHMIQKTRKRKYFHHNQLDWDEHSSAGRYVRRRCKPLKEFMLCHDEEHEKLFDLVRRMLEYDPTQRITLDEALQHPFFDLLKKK
The next data set has as its target CK2 (Homo sapiens, UniProt P68400). Nature of the data set: IC50 towards inhibition of various kinases: CK2. It is filed as biochemical.
Data set [4] concerns mouse alveolar macrophages. Nature of the data set: Lysosomes fusion: Rhodamine-110 processing and pHrodo-Red E. coli Bioparticles in murine alveolar macrophages. It is filed as cell-based. On the procedure: We added Rhodamine-110 to the cells prior the pHrodo-Red conjugated E. coli Bioparticles® providing simultaneous uptake of both probes into phagosomes. Lysosomes fusion into nascent phagosomes brings proteases including cathepsin and triggers Rhodamine conversion.
Isolated mouse alveolar macrophages (from cftr^−/− or Δ508F CFTR mice) were cultured adherent on the poly-L-lysine coated glass bottom dishes for 24-48 h. Then they were treated with 10 μM Rhodamine-110 for 20 min at room temperature in the dark with following incubation with 0.1 mg/ml pHrodo-Red conjugated E. coli Bioparticles® for 1 hour at 37° C. […] Then the cells were washed twice with PBS, fixed with 4% PFA. The images were acquired immediately after fixation on Leica SP5 2-photon laser confocal microscope with a 63× (NA1.4) oil objective.
Isolated mouse macrophages were plated on 96-well plate with a density of 3-6,000 cells (20-60 μm diameter) per well, incubated in complete DMEM (10% FBS, 1% penicillin-streptomycin) at 37° C. under 5% CO2 pressure for 24-48 h. The cells were loaded with 5 μM Rhodamine-110 for 20 min at room temperature in the dark, fed with E. coli Bioparticles® conjugated to pHrodo-Red for 1 h at 37° C.

The target in another data set is Pim1 (Homo sapiens, UniProt P11309). Nature of the data set: IC50 towards inhibition of various kinases: Pim1. Format: biochemical.
Sequence of Pim1 (P11309 whole entry, species assumed): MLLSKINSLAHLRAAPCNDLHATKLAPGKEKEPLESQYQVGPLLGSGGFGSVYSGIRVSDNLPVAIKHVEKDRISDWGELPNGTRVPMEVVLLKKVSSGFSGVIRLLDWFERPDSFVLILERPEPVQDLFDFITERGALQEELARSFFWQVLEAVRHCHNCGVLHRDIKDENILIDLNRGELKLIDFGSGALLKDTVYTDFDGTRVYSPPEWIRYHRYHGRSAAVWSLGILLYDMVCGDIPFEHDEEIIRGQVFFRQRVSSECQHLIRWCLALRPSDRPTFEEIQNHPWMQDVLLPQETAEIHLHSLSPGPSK
The target in the next data set is DYRK1B (Homo sapiens, UniProt Q9Y463). As to the kind of experiment: IC50 towards inhibition of various kinases: DYRK1B. It is filed as biochemical.
Sequence of DYRK1B (Q9Y463 whole entry, species assumed): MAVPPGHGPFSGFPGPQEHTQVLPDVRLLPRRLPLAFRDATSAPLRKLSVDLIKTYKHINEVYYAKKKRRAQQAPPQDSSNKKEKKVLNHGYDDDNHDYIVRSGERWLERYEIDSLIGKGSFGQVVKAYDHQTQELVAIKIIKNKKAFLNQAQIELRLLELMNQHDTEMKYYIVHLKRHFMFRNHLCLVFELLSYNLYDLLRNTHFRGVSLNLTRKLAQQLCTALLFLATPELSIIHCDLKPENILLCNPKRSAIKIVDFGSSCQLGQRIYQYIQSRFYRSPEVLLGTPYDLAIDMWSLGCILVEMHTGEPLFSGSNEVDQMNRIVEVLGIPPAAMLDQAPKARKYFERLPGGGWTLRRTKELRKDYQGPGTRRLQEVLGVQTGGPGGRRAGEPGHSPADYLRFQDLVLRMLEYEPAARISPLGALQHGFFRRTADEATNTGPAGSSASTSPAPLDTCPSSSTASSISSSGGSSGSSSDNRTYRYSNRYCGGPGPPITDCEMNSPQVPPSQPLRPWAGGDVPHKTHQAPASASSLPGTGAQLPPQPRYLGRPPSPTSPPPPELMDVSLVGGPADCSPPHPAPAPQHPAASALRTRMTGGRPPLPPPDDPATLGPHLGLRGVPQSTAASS

Sequence of DYRK2 (Q92630 whole entry, species assumed): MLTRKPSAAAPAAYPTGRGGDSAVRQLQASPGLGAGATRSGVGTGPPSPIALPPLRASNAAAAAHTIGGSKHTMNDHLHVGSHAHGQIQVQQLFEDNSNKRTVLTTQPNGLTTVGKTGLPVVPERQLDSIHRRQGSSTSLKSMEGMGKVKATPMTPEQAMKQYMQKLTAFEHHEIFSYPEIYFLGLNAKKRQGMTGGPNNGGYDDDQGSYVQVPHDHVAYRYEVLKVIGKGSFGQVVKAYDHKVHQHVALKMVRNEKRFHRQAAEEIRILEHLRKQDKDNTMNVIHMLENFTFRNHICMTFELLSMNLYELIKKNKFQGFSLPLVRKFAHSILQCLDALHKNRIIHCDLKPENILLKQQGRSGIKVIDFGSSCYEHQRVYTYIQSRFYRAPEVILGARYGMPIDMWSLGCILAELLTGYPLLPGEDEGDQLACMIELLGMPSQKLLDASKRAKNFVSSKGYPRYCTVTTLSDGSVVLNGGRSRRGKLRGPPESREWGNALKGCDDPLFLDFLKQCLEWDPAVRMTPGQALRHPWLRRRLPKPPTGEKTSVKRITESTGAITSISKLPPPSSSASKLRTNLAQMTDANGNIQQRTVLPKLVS
Sequence of DYRK3 (O43781 whole entry, species assumed): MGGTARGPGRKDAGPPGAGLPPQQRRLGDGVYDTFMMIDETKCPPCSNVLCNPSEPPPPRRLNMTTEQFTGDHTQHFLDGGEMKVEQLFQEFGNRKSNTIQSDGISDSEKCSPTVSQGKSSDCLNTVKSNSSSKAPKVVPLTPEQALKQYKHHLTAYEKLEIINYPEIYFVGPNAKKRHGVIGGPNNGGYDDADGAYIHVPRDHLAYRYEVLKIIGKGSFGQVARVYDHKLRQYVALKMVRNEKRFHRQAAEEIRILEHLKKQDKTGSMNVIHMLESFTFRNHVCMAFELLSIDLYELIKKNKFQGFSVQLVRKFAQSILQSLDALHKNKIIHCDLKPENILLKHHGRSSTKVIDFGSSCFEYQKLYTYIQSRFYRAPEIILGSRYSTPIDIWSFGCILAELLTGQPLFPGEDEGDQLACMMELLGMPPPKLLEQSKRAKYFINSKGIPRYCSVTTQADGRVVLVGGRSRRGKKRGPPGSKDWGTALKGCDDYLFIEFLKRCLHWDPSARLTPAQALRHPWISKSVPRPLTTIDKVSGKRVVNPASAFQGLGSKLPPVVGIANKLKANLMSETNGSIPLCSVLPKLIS
Sequence of CK2 (P68400 whole entry, the tested form may be a part): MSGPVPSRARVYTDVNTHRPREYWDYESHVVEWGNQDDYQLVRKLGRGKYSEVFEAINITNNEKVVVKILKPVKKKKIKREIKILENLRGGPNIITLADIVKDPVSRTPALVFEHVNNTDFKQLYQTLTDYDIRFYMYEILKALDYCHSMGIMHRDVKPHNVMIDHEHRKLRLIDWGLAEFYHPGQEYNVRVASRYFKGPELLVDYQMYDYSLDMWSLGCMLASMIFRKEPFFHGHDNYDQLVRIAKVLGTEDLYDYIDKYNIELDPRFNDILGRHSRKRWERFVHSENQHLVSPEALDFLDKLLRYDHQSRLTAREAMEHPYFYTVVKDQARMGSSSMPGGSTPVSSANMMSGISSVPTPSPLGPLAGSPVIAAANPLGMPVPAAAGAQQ
Sequence of CLK3 (P49761 whole entry, species assumed): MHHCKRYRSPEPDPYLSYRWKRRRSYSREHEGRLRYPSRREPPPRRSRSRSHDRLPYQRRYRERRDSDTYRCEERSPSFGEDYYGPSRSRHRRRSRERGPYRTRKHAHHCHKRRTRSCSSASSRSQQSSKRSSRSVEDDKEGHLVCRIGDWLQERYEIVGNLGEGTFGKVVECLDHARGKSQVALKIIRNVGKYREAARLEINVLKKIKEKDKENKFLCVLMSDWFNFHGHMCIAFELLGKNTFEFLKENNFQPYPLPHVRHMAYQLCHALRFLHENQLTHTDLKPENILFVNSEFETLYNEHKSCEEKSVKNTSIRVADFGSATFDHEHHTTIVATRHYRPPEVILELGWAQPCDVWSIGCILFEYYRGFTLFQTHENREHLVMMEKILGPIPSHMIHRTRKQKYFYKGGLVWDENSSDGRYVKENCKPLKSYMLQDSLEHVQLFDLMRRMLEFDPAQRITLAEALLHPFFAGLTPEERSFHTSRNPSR

One may read the IC50 as the concentration that inhibits the measured activity by half. On to `CC[C@@H](Nc1nc(NCc2ccccc2)c2ncn(C(C)C)c2n1)C(=O)O` [Metabolite M3, (2R)-2-[[9-isopropyl-6-(phenylmethylamino)purin-2-yl]amino]butanoic acid], for which the “prevention of bacterial growth in culture (optical density)” value (shortened to “prevention of bacterial growth”) in the data set with Pseudomonas aeruginosa (20 μM) was “unable to prevent bacterial growth”. The half-inhibitory concentration (IC50) at CLK3 was 52 µM; in the data set on CDK1/cyclin B it was 11 µM; against DYRK3 it was above 100 µM; on PfGSK-3, above 100 µM; at DYRK2, 23 µM; in the data set with GSK-3α/β it was above 100 µM. Further, the 50% inhibitory concentration (IC50) at CLK1 was 18 µM; with CK1δ/ε it was 21 µM; at CLK2, 14 µM; against DYRK1A, 19 µM; at CDK9/cyclin T, above 10 µM; against CLK4, 19 µM. In addition, the figures for the IC50 against CK2, against Pim1 and against DYRK1B were above 100 µM, above 100 µM and 22 µM, respectively. For the same compound, in [1], the “phagosomal acidification over phagosomal pH observed in untreated cells” value is given as “significantly enhance acidification”. The “rescue of bacterial killing (intracellular P. aeruginosa growth)” value in data set [2] and in data set [3] was “at least as efficient as with (R)-roscovitine” throughout. Moreover, at kinase, the kinase inhibiting properties result is recorded as “does not exhibit kinase inhibiting properties”. The “lysosomes fusion / rhodamine-110 processing by lysosomal proteases” value in data set [4] (FIG. 4B, 10 μM, mouse alveolar macrophages, versus control cells, listed as M3 metabolite) is recorded as “increased; also recorded: enhanced lysosomes fusion”.
For orientation: melting point means the temperature of the solid-liquid transition. Turning to `CC(C)n1cnc2c(NCc3ccccc3)nc(N[C@@H](CO)C(=O)O)nc21` [Compound 6, (2S)-2-[[6-(benzylamino)-9-isopropyl-purin-2-yl]amino]-3-hydroxy-propanoic acid], the melting point was 120 to 130 °C.
Regarding `CO/C1=C\C(C)=C\[C@@H](C)[C@@H](O)[C@@H](C)C/C(C)=C/C=C/[C@H](OC)[C@@H]([C@@H](C)[C@@H](O)[C@H](C)[C@@]2(O)C[C@@H](O)[C@H](C)[C@@H](C(C)C)O2)OC1=O` [bafilomycin], in the data set with Pseudomonas aeruginosa (1 μM), the “prevention of bacterial growth” value is recorded as “unable to prevent bacterial growth”.
Regarding `CC[C@H](CO)Nc1nc(NCc2ccccc2)c2ncn(C(C)C)c2n1` [(R)-roscovitine, 2-(R)-(1-ethyl-2-hydroxyethylamino)-6-benzylamino-9-isopropylpurine, reference compound], in the data set on Pseudomonas aeruginosa (20 μM), the “prevention of bacterial growth” value is recorded as “unable to prevent bacterial growth”. The values for the IC50 against DYRK3 and on DYRK2 were 59 µM and 2.3 µM, respectively. In addition, in [1], the “phagosomal acidification over phagosomal pH observed in untreated cells” value was “significantly enhance acidification”. Also, the “rescue of bacterial killing (intracellular P. aeruginosa growth)” value in data set [2] and in data set [3] was “significantly rescues bacterial killing” each time. Also, in [4] (FIG. 4A, alveolar macrophages, compared to control), the “fluorescence from pHrodo-Red conjugated E. coli Bioparticles phagocytosis” value is on record as “decreased”. Moreover, the “fluorescence resulting from rhodamine-110 processing by lysosomal proteases” value in data set [4] (FIG. 4A, confocal microscopy, compared to control without compound) is “increased”.
